According to ChEMBL document CHEMBL6121044, “Discovery of Novel Spirocyclic MAT2A Inhibitors Demonstrating High In Vivo Efficacy in MTAP-Null Xenograft Models” (J Med Chem, 2025):

Tests used:
[1] = target: S-adenosylmethionine synthase isoform type-2 (Homo sapiens, UniProt P31153); experiment: Inhibition of MAT2A (unknown origin) assessed as release of inorganic phosphate using ATP/L-methionine pre-incubated for 30 mins followed by substrate addition measured after 2.5 hrs by colorimetric assay
HCT-116 [2] = experiment: Antiproliferative activity against MTAP-knock out human HCT-116 cells assessed as proliferation inhibition rate measured after 5 days by CTG assay; format: functional, cell-based; conditions: HCT-116, 120 h
HCT-116 [3] = experiment: Antiproliferative activity against MTAP-knock out human HCT-116 cells assessed as maximal inhibition rate at 10 uM measured after 5 days by CTG assay relative to control; format: functional; conditions: time 5 day
[4] = Microsomal metabolic stability in human liver microsomes assessed as clearance; format: ADME, Microsome; conditions: read-out: CLH
[5] = Microsomal metabolic stability in mouse liver microsomes assessed as clearance; format: ADME, Microsome; conditions: read-out: CLH
[6] = Lipophilicity, log D of compound at pH 7.4 byHPLC method; format: physicochemical; conditions: buffer
[7] = Clearance in male ICR mouse at 10 mg/kg, po and 2 mg/kg, iv measured upto 24 hrs; format: ADME, organism-based; conditions: in vivo
[8] = Volume of distribution at steady state in male ICR mouse at 10 mg/kg, po and 2 mg/kg, iv measured upto 24 hrs; format: ADME, organism-based; conditions: in vivo
[9] = Half life in male ICR mouse at 10 mg/kg, po and 2 mg/kg, iv measured upto 24 hrs; format: ADME, organism-based; conditions: in vivo
[10] = AUC (0 to infinity) in male ICR mouse at 10 mg/kg, po and 2 mg/kg, iv measured upto 24 hrs; format: ADME, organism-based; conditions: in vivo
HCT-116 [11] = experiment: Anti-tumor activity against human HCT-116 MATP(-/-) cells xenografted in mouse model assessed as tumor growth inhibition at 200 mg/kg QD relative to control; format: functional; conditions: read-out: TGI
HCT-116 [12] = experiment: Anti-tumor activity against human HCT-116 MATP(-/-) cells xenografted in mouse model assessed as tumor growth inhibition at 30 mg/kg QD relative to control; format: functional; conditions: read-out: TGI

Sequence of S-adenosylmethionine synthase isoform type-2 (P31153 whole entry, canonical isoform): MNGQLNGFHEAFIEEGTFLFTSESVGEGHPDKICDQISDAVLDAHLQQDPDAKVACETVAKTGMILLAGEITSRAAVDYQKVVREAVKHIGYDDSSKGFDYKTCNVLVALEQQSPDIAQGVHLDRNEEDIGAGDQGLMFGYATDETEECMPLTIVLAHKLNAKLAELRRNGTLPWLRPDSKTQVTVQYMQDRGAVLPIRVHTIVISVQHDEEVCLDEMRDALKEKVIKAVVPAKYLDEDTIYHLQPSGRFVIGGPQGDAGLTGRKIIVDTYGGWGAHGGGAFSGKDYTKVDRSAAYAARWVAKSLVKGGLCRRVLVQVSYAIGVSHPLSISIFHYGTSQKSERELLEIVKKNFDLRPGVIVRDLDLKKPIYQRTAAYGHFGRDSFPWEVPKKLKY

Row | IC50 [1] [nM] | IC50 (HCT-116 [2]) [nM] | CLint scaled [4] [mL/min/kg] | CLint scaled [5] [mL/min/kg] | logD [6] | clearance [7] [mL/min/kg] | Vdss [8] [L/kg] | half-life [9] [h] | AUC(0-inf) [10] [ng·h/mL] | Compound | Imax (HCT-116 [3]) [%] | inhibition in vivo at 200 mg/kg (HCT-116 [11]) [%] | inhibition in vivo at 30 mg/kg (HCT-116 [12]) [%]
1 | 3 | – | – | – | – | – | – | – | – | CNc1nc(=O)n(-c2ccccc2Cl)c2nc(C(F)(F)F)ccc12 (single isomer, unassigned; atropisomer 1) | – | – | –
2 | 6 | 66 | 12.3 | 85.7 | 1.92 | – | – | – | – | CNC1=NC(=O)C2(CCc3ncccc32)c2cc(C3CC3)ccc21 (centres undefined) | 97.11 | – | –
3 | 55 | 23300 | – | – | – | – | – | – | – | CNC1=NC(=O)C2(CCc3ccc(F)cc32)c2nc(C(F)(F)F)ccc21 (centres undefined) | 52.53 | – | –
4 | 3 | – | – | – | – | – | – | – | – | Nc1nc(=O)n(-c2ccccc2Cl)c2nc(C(F)(F)F)ccc12 (single isomer, unassigned; atropisomer A) | – | – | –
5 | 55 | – | – | – | – | – | – | – | – | CNC1=NC(=O)C2(Cc3ccccc3C2)c2nc(C(F)(F)F)ccc21 | – | – | –
6 | 64 | – | – | – | 2.4 | – | – | – | – | C=C(c1ccc2c(c1)C1(CCc3ncccc31)C(=O)N=C2NC)C(F)(F)F (centres undefined) | – | – | –
7 | 86 | – | – | – | – | – | – | – | – | CNc1nc(=O)n(-c2ccccc2Cl)c2nc(C(F)(F)F)ccc12 (single isomer, unassigned; atropisomer 2) | – | – | –
8 | 6 | 405 | – | – | 2.55 | – | – | – | – | CNC1=NC(=O)C2(CCc3ncccc32)c2cc(C(F)(F)C(F)(F)F)ccc21 (centres undefined) | 66.34 | – | –
9 | 24 | 225 | – | – | – | – | – | – | – | CNC1=NC(=O)C2(CCc3cccc(F)c32)c2nc(C(F)(F)F)ccc21 (centres undefined) | 71.66 | – | –
10 | 16 | 2440 | – | – | 1.95 | – | – | – | – | CNC1=NC(=O)C2(CCc3ncccc32)c2cc(C=C(F)F)ccc21 (centres undefined) | 96.49 | – | –
11 | 18 | 1100 | < 9.3 | 48.2 | – | – | – | – | – | CNC1=NC(=O)C2(CCc3c(C#N)cccc32)c2nc(C(F)(F)F)ccc21 (centres undefined) | 76.16 | – | –
12 | 4 | 146 | – | – | 2.77 | – | – | – | – | O=C1N=C(NC2CC2)c2ccc(C(F)(F)F)cc2C12CCc1ncccc12 (racemic) | 71.61 | – | –
13 | 9 | 101 | < 9.3 | 55 | 1.57 | – | – | – | – | CNC1=NC(=O)C2(CCc3ncccc32)c2cc(C(C)(F)F)ccc21 (centres undefined) | 100 | – | –
14 | 47 | 1060 | – | – | 1.1 | – | – | – | – | CNC1=NC(=O)C2(CCc3ncccc32)c2cc(C3CC3)ncc21 (centres undefined) | 79.52 | – | –
15 | 18 | – | – | – | – | – | – | – | – | CNC1=NC(=O)C2(CCc3c(Br)cccc32)c2nc(C(F)(F)F)ccc21 (centres undefined) | – | – | –
16 | – | 492 | < 9.3 | 40.3 | – | – | – | – | – | COc1ccc(-c2c(Nc3ccccn3)[nH]c3c(C4=CCCCC4)c(-c4ccccc4)nn3c2=O)cc1 | 100 | 52 | –
17 | – | – | < 9.3 | < 9.3 | – | – | – | – | – | COC1(C(=O)N2Cc3nc(Cl)nc(N[C@H](C)c4cc(N)cc(C(F)(F)F)c4)c3C2)CCOCC1 | – | – | –
18 | 9 | 149 | < 9.3 | 67 | – | 9.06 | 2.42 | 3.35 | 18600 | CNC1=NC(=O)C2(CCc3ncccc32)c2nc(C(F)(F)F)ccc21 (centres undefined) | 87.63 | – | –
19 | 57 | – | – | – | – | – | – | – | – | CNC1=NC(=O)C(C)(c2ccccc2)c2nc(C(F)(F)F)ccc21 (centres undefined) | – | – | –
20 | 7 | 17 | < 9.3 | 59 | – | 29.3 | 3.665 | 2.05 | 6020 | CNC1=NC(=O)C2(CCc3ccccc32)c2nc(C(F)(F)F)ccc21 (centres undefined) | 77.71 | – | –
21 | 8 | 193 | – | – | 1.36 | – | – | – | – | CNC1=NC(=O)C2(CCc3ncccc32)c2cc(OC(F)F)ccc21 (centres undefined) | 83.08 | – | –
22 | 12 | 57 | 24.1 | 193 | – | – | – | – | – | CNC1=NC(=O)C2(CCCc3ccccc32)c2nc(C(F)(F)F)ccc21 (centres undefined) | 74.25 | – | –
23 | > 3000 | – | – | – | – | – | – | – | – | CNC1=NC(=O)C2(OCc3ccccc32)c2nc(C(F)(F)F)ccc21 (centres undefined) | – | – | –

Continued, compound first:

Row | Compound | IC50 [1] [nM] | IC50 (HCT-116 [2]) [nM] | CLint scaled [4] [mL/min/kg] | CLint scaled [5] [mL/min/kg] | logD [6] | clearance [7] [mL/min/kg] | Vdss [8] [L/kg] | half-life [9] [h] | AUC(0-inf) [10] [ng·h/mL] | Imax (HCT-116 [3]) [%] | inhibition in vivo at 200 mg/kg (HCT-116 [11]) [%] | inhibition in vivo at 30 mg/kg (HCT-116 [12]) [%]
24 | CNC1=NC(=O)C2(CCc3c(F)cccc32)c2nc(C(F)(F)F)ccc21 (centres undefined) | 11 | 105 | 13.4 | 118 | – | – | – | – | – | 86.45 | – | –
25 | CNC1=NC(=O)C2(CC(C)(C)c3ccccc32)c2nc(C(F)(F)F)ccc21 (centres undefined) | 78 | > 10000 | – | – | – | – | – | – | – | – | – | –
26 | CN(C)C1=NC(=O)C2(CCc3ncccc32)c2cc(C(F)(F)F)ccc21 (racemic) | 19 | 119 | – | – | 2.24 | – | – | – | – | 79.25 | – | –
27 | CNC1=NC(=O)C2(CCc3ncccc32)c2cc(C3CC3)cc(F)c21 (centres undefined) | 13 | 240 | – | – | 2.21 | – | – | – | – | 78.29 | – | –
28 | O=C1N=C(NC2COC2)c2ccc(C(F)(F)F)cc2C12CCc1ncccc12 (racemic) | > 3000 | – | – | – | 1.57 | – | – | – | – | – | – | –
29 | CNC1=NC(=O)C2(CCc3ncccc32)c2cc(C(F)(F)F)ccc21 (racemic) | 11 | 97 | < 9.3 | 51.2 | 1.83 | 6.77 | 2.2 | 3.53 | 35200 | 93.27 | – | –
30 | CNC1=NC(=O)C2(COc3ccccc32)c2nc(C(F)(F)F)ccc21 (centres undefined) | 115 | 5080 | – | – | – | – | – | – | – | 51.99 | – | –
31 | CNC1=NC(=O)C2(CCc3ncccc32)c2cc(C3CC3)c(F)cc21 (centres undefined) | 4 | 83 | < 9.3 | 38.9 | 2.24 | – | – | – | – | 84.78 | – | –
32 | CNC1=NC(=O)C2(CCc3cccnc32)c2nc(C(F)(F)F)ccc21 (centres undefined) | 591 | – | – | – | – | – | – | – | – | – | – | –
33 | CNC1=NC(=O)C2(CCc3cc(F)ccc32)c2nc(C(F)(F)F)ccc21 (centres undefined) | 33 | 4710 | < 9.3 | 71.6 | – | – | – | – | – | 55.77 | – | –
34 | [2H]C([2H])([2H])NC1=NC(=O)[C@]2(CCc3ncccc32)c2cc(C3CC3)c(F)cc21 | 4 | 49 | < 9.3 | 38.9 | 2.2 | 11.4 | 1.02 | 2.1 | 12300 | 77 | – | –
35 | [2H]C([2H])([2H])NC1=NC(=O)[C@]2(CCc3ncccc32)c2cc(C3CC3)ccc21 | 4 | 55 | 11.2 | 63 | 1.92 | 13.1 | 1.26 | 1.47 | 22000 | 78.6 | – | –
36 | [2H]C([2H])([2H])NC1=NC(=O)[C@]2(CCc3ncccc32)c2cc(C(C)(F)F)c(F)cc21 | 4 | 70 | < 9.3 | < 29.3 | 1.87 | 11.2 | 1.15 | 1.58 | 14200 | 85.98 | – | –
37 | O=C1N=C(NC2CC(F)(F)C2)c2ccc(C(F)(F)F)cc2C12CCc1ncccc12 (racemic) | 5 | 283 | – | – | 2.88 | – | – | – | – | 77.73 | – | –
38 | [2H]C([2H])([2H])NC1=NC(=O)C2(CCc3ncccc32)c2cc(C(F)(F)F)ccc21 (racemic) | 8 | 115 | < 9.3 | 42.5 | 1.82 | 5.13 | 1.39 | 3.64 | 56700 | 92 | – | –
39 | NC1=NC(=O)C2(CCc3ncccc32)c2cc(C(F)(F)F)ccc21 (racemic) | 4 | 100 | < 9.6 | < 9.6 | 1.76 | 8.48 | 1.68 | 1.92 | 20400 | 75.59 | – | –
40 | COc1cc(NC2=NC(=O)C3(CCc4ncccc43)c3cc(C(F)(F)F)ccc32)ccn1 (racemic) | 12 | 180 | – | – | 3.29 | – | – | – | – | 56.22 | – | –
41 | Cn1cnc2c(=O)n(-c3cccnc3C3CC3)c3cc(Cl)ccc3c21 | – | – | – | – | – | – | – | – | – | – | – | 82.9
42 | O=C1N=C(NCC(F)(F)F)c2ccc(C(F)(F)F)cc2C12CCc1ncccc12 (racemic) | 10 | 263 | < 9.3 | < 29.3 | 2.73 | – | – | – | – | 101.9 | – | –
